Results on one compound are retold here after patent publication US20240350446A1, “CAROTENOID SOLUTIONS AND USES THEREOF” (L.E.A.F. HOLDINGS GROUP LLC, priority 2020, published 2024).

Series [1] can be described thus: Solubility of TSC in aqueous PEG400/NaCl/sucrose formulations. It is filed as physicochemical. The method, then:
(§1) 1650 grams of sucrose was added to 51.59 Kg of WFI with mixing in a Nalgene tank containing a tank liner. 2475 grams of PEG400 was then added to the tank with mixing. After the sucrose and PEG400 were completely dissolved, 110 grams of TSC was added and the solution was mixed at room temperature for a minimum of 30 minutes or until the solution was clear. The solution was then filtered through a 0.45 μm glass fiber prefilter+0.2 μm sterile filter at a pump speed of 700 mL/min into a 100 L Biobag. A sample of the filtrate was pulled from the Biobag solution for a bioburden test. The Biobag was stored at 2-8° C. for at least 12 hours and then brought to room temperature and sterile filtered through 0.45 μm glass fiber prefilter+0.2 μm sterile filter at a pump speed of 700 mL/min to a 100 L Biobag. The sterile filtrate was then filled into amber 10R vials with a target 10.5 ml fill volume.
Other exemplary TSC aqueous solutions were formulated with varying concentrations of PEG400, NaCl, sucrose and TSC concentrations.
(§2) All formulations could be carried out at room temperature with mixing. The dissolution of TSC was generally completed within 10 minutes. […] The solution pH is around 8.7 and no further pH adjustment was needed. The final formulation has an osmolality around 270 mOsm.

Series [2] in a line: Properties of TSC aqueous formulation (dissolution, crash-out on dilution/storage, pH, osmolality). It is filed as physicochemical. How it is done: as §1, §2

Consider `CC(/C=C/C=C(\C)C(=O)[O-])=C\C=C\C=C(C)\C=C\C=C(/C)C(=O)[O-].[Na+].[Na+]` [TSC, trans sodium crocetinate], for which the “Observation (solubility)” value in series [1] (PEG400 2% (v/v), NaCl 0%, sucrose 0%, TSC 2 mg/mL) is “soluble”; in series [1] (PEG400 4% (v/v), NaCl 0%, sucrose 0%, TSC 4 mg/mL), “soluble”; in series [1] (PEG400 4% (v/v), NaCl 0%, sucrose 3% (w/v), TSC 2 mg/mL), “soluble”; in series [1] (PEG400 4% (v/v), NaCl 0.9% (w/w), sucrose 0%, TSC 2 mg/mL (first of two identical lines)) it was “partially soluble”; in series [1] (PEG400 4% (v/v), NaCl 0.9% (w/w), sucrose 0%, TSC 2 mg/mL (second of two identical lines)), “soluble”; in series [1] (PEG400 4% (v/v), NaCl 0.9% (w/w), sucrose 0%, TSC 4 mg/mL), “partially soluble”. The “Observation (solubility)” value in series [1] (PEG400 6% (v/v), NaCl 0%, sucrose 0%, TSC 4 mg/mL) is listed as “soluble”; in series [1] (PEG400 8% (v/v), NaCl 0%, sucrose 0%, TSC 8 mg/mL) it was “saturated with some”; in series [1] (PEG400 80% (v/v), NaCl 0% (w/w), sucrose 0% (w/v), TSC 20 mg/mL) it was “soluble”. In series [2] (all formulations, room temperature with mixing), the “dissolution of TSC, time to completion” value was not above 10 min. Also, the “TSC crash out of solution after storage” value in series [2] (storage at 2-8° C.) is given as “No TSC was observed to crash out”. The “TSC crash out of the solution upon dilution” value in series [2] (ten times dilution in 0.9% saline, 2 mg/mL formulation) is reported as “No TSC was observed to crash out”.
